According to ChEMBL document CHEMBL5532669, “Guiding the Way: Traditional Medicinal Chemistry Inspiration for Rational Gram-Negative Drug Design” (J Med Chem, 2024):
≈ marks a conversion by molar mass, not a printed value. Each block holds one compound with its values, some of them ahead of it.

Columns and labels:
Escherichia coli [1] = assay: Antibacterial activity against wild type Escherichia coli assessed as reduction in microbial growth measured after 24 hrs by broth microdilution method
Escherichia coli [2] = assay: Antibacterial activity against wild type Escherichia coli ATCC 25922 assessed as reduction in bacterial growth measured after 16 to 20 hrs by CLSI-based microbroth dilution method; format: functional, organism-based
Escherichia coli [3] = assay: Antibacterial activity against Escherichia coli assessed as reduction in bacterial growth incubated for 24 hrs by broth micro-dilution method; format: functional
Klebsiella pneumoniae = assay: Antibacterial activity against Klebsiella pneumoniae assessed as reduction in bacterial growth by broth microdilution method; format: functional
Acinetobacter baumannii [4] = assay: Antibacterial activity against Acinetobacter baumannii assessed as reduction in bacterial growth by broth microdilution method; format: functional
Pseudomonas aeruginosa = assay: Antibacterial activity against Pseudomonas aeruginosa ATCC 15442 assessed as bacterial growth inhibition measured after 18 hrs by CLSI protocol based two-fold serial microdilution method; format: functional
Escherichia coli [5] = assay: Antibacterial activity against wild type Escherichia coli assessed as reduction in microbial growth measured after 24 hrs by broth microdilution method; remark: listed apart in the source
[6] = target: T1, MexAB/OprM (Pseudomonas aeruginosa (strain ATCC 15692 / DSM 22644 / CIP 104116 / JCM14847 / LMG 12228 / 1C / PRS 101 / PAO1)) (UniProt P52477+P52002+Q51487); assay: Inhibition of Pseudomonas aeruginosa MexAB-OprM P delta 6 pore assessed as minimal potentiating concentration for 4 fold reduction carbenicillin MIC; format: protein-complex assay
[7] = target: T1, MexAB/OprM (Pseudomonas aeruginosa (strain ATCC 15692 / DSM 22644 / CIP 104116 / JCM14847 / LMG 12228 / 1C / PRS 101 / PAO1)); assay: Inhibition of Pseudomonas aeruginosa MexAB-OprM P delta 6 pore assessed as minimal potentiating concentration for 4 fold reduction cefotaxime MIC; format: protein-complex assay
[8] = target: T1, MexAB/OprM (Pseudomonas aeruginosa (strain ATCC 15692 / DSM 22644 / CIP 104116 / JCM14847 / LMG 12228 / 1C / PRS 101 / PAO1)); assay: Inhibition of Pseudomonas aeruginosa MexAB-OprM P delta 6 pore assessed as minimal potentiating concentration for 4 fold reduction Levofloxacin MIC; format: protein-complex assay
[9] = target: T1, MexAB/OprM (Pseudomonas aeruginosa (strain ATCC 15692 / DSM 22644 / CIP 104116 / JCM14847 / LMG 12228 / 1C / PRS 101 / PAO1)); assay: Inhibition of Pseudomonas aeruginosa MexAB-OprM P delta 6 pore assessed as minimal potentiating concentration for 4 fold reduction ciprofloxacin MIC; format: protein-complex assay
[10] = target: T1, MexAB/OprM (Pseudomonas aeruginosa (strain ATCC 15692 / DSM 22644 / CIP 104116 / JCM14847 / LMG 12228 / 1C / PRS 101 / PAO1)); assay: Inhibition of Pseudomonas aeruginosa MexAB-OprM P delta 6 pore assessed as minimal potentiating concentration for 4 fold reduction novobiocin MIC; format: protein-complex assay
Enterobacter cloacae = assay: Antibacterial activity against Enterobacter cloacae assessed as reduction in bacterial growth by broth microdilution method; format: functional
Acinetobacter baumannii [11] = assay: Antibacterial activity against wild type Acinetobacter baumannii ATCC 17978 assessed as inhibition of microbial growth measured after 24 hrs by broth microdilution method; format: functional, organism-based; settings: ATCC 17978, 24 h
Escherichia coli [12] = assay: Antibacterial activity against wild type Escherichia coli assessed as reduction in bacterial growth inhibition incubated for 24 hrs by broth microdilution method; format: functional, organism-based

Compound: Nc1cccc(-c2ccc(N3C[C@H](CO)OC3=O)cc2F)n1
IC50 (Escherichia coli [1]): 59 µM

Compound: O=Cc1ccc(-c2ccc(N3C[C@H](CO)OC3=O)cc2F)cc1
IC50 (Escherichia coli [2]): 13.5 µM

MIC (Escherichia coli [3]): 8 µg/mL (≈ 16 µM)
MIC (Klebsiella pneumoniae): 16 µg/mL (≈ 32 µM)
MIC (Acinetobacter baumannii [4]): 8 µg/mL (≈ 16 µM)
MIC (Pseudomonas aeruginosa): 64 µg/mL (≈ 128 µM)
Compound: Cc1c(CNCCCCCCCCNC(=N)N)cc(-c2ccc(Cl)cc2)n1-c1ccc(Cl)cc1

Compound: O=C1O[C@@H](CO)CN1c1ccc(-c2cc[n+](Cc3ccccc3)cc2)c(F)c1
IC50 (Escherichia coli [5]): 15.4 µM

Compound: O=C1O[C@@H](CO)CN1c1ccc(-c2ccc(CO)cc2)c(F)c1
IC50 (Escherichia coli [2]): 13.5 µM

Compound: C[n+]1ccccc1-c1ccc(-c2ccc(N3C[C@H](CO)OC3=O)cc2F)cc1
IC50 (Escherichia coli [5]): 15.4 µM

Compound: C[n+]1ccc2cc(-c3ccc(N4C[C@H](CO)OC4=O)cc3F)ccc2c1
IC50 (Escherichia coli [5]): 15.4 µM

Compound: O=C1O[C@@H](CO)CN1c1ccc(-c2cccc(CO)c2)c(F)c1
IC50 (Escherichia coli [2]): 13.5 µM

Compound: O=C1O[C@@H](CO)CN1c1ccc(-c2ccc(-c3ccccn3)cc2)c(F)c1
IC50 (Escherichia coli [2]): 13.5 µM

MEC [6]: 100 µM
MEC [7]: 100 µM
MEC [8]: 6.25 µM
MEC [9]: 12.5 µM
MEC [10]: 3.12 µM
Compound: O=C(/C=C/c1ccccc1Cl)Nc1ccc(C2=NCCN2)c(C2=NCCN2)c1

Compound: O=C1O[C@@H](CO)CN1c1ccc(-c2cc(Cl)cc(Cl)c2)c(F)c1
IC50 (Escherichia coli [1]): 59 µM

MIC (Escherichia coli [3]): > 32 µg/mL
MIC (Enterobacter cloacae): > 32 µg/mL
MIC (Klebsiella pneumoniae): > 32 µg/mL
MIC (Acinetobacter baumannii [4]): > 32 µg/mL
MIC (Pseudomonas aeruginosa): > 32 µg/mL
Compound: Cc1c(CN(C)C(=O)/C=C/c2cnc3c(c2)CCC(=O)N3)oc2ccccc12 [AFN-1252]

MIC (Escherichia coli [3]): 0.5 µg/mL (≈ 1.54 µM)
MIC (Enterobacter cloacae): 0.5 µg/mL (≈ 1.54 µM)
MIC (Klebsiella pneumoniae): 1 µg/mL (≈ 3.07 µM)
MIC (Acinetobacter baumannii [4]): 2 µg/mL (≈ 6.15 µM)
MIC (Pseudomonas aeruginosa): 16 µg/mL (≈ 49.2 µM)
Compound: Cc1cc(=O)n(C)c2c3c4c(cc12)c(C)cc(=O)n4C(CN)CO3 (configuration not stated)

MIC (Escherichia coli [3]): 8 µg/mL (≈ 18.7 µM)
MIC (Klebsiella pneumoniae): 16 µg/mL (≈ 37.3 µM)
MIC (Acinetobacter baumannii [4]): 16 µg/mL (≈ 37.3 µM)
MIC (Pseudomonas aeruginosa): 32 µg/mL (≈ 74.7 µM)
Compound: Cc1c(CNC2CCC(N)CC2)cc(-c2ccc(Cl)cc2)n1-c1ccc(Cl)cc1 (configuration not stated)

MIC (Escherichia coli [3]): > 128 µg/mL
MIC (Klebsiella pneumoniae): > 128 µg/mL
MIC (Acinetobacter baumannii [4]): 64 µg/mL (≈ 155 µM)
MIC (Pseudomonas aeruginosa): > 128 µg/mL
Compound: Cc1c(CNC2CCCCC2)cc(-c2ccc(Cl)cc2)n1-c1ccc(Cl)cc1

Compound: CSCc1ccc(N2C[C@H](CO)OC2=O)cc1F
IC50 (Escherichia coli [1]): 59 µM

Compound: C[n+]1ccc(-c2ccc(-c3ccc(N4C[C@H](CO)OC4=O)cc3F)cc2)cc1
IC50 (Escherichia coli [5]): 15.4 µM

Compound: CC[n+]1ccc(-c2ccc(N3C[C@H](CO)OC3=O)cc2F)cc1
IC50 (Escherichia coli [5]): 15.4 µM

Compound: CC(O)c1ccc(OCc2ccc(N3C[C@H](CO)OC3=O)cc2F)cc1 (some centres not stated)
IC50 (Escherichia coli [1]): 59 µM

Compound: CC(C)[n+]1ccc(-c2ccc(N3C[C@H](CO)OC3=O)cc2F)cc1
IC50 (Escherichia coli [2]): 13.5 µM

Compound: COC(=O)c1cncc(-c2ccc(N3C[C@H](CO)OC3=O)cc2F)c1
IC50 (Acinetobacter baumannii [11]): 19 µM

Compound: CCC[n+]1ccc(-c2ccc(N3C[C@H](CO)OC3=O)cc2F)cc1
IC50 (Escherichia coli [5]): 15.4 µM

Compound: O=C1O[C@@H](CO)CN1c1ccc(-c2ccccc2)c(F)c1
IC50 (Escherichia coli [2]): 13.5 µM

Compound: C[n+]1cccc(-c2ccc(-c3ccc(N4C[C@H](CO)OC4=O)cc3F)cc2)c1
IC50 (Escherichia coli [5]): 15.4 µM

MIC (Escherichia coli [3]): 4 µg/mL (≈ 10.2 µM)
MIC (Enterobacter cloacae): 8 µg/mL (≈ 20.5 µM)
MIC (Klebsiella pneumoniae): 8 µg/mL (≈ 20.5 µM)
MIC (Acinetobacter baumannii [4]): 4 µg/mL (≈ 10.2 µM)
MIC (Pseudomonas aeruginosa): > 64 µg/mL
Compound: Cc1c(CN(C)C(=O)/C=C/c2cnc3c(c2)CC(N)C(=O)N3)oc2ccccc12 (configuration not stated)

Compound: O=C1O[C@@H](CO)CN1c1ccc(-c2ccc(SC(F)(F)F)cc2)c(F)c1
IC50 (Escherichia coli [2]): 13.5 µM

Compound: N/C(=N/O)c1ccc(-c2ccc(N3C[C@H](CO)OC3=O)cc2F)cc1
IC50 (Escherichia coli [2]): 13.5 µM

Compound: COCc1ccc(N2C[C@H](CO)OC2=O)cc1F
IC50 (Escherichia coli [1]): 59 µM

Compound: CC(C)c1ccc(-c2ccc(N3C[C@H](CO)OC3=O)cc2F)c(C(C)C)c1
IC50 (Escherichia coli [12]): 23 µM

Compound: O=C1O[C@@H](CO)CN1c1ccc(-c2ccnc(N3CCCC3)c2)c(F)c1
IC50 (Acinetobacter baumannii [11]): 19 µM

Compound: COC(=O)c1ccccc1-c1ccc(N2C[C@H](CO)OC2=O)cc1F
IC50 (Escherichia coli [12]): 23 µM

Compound: O=C1O[C@@H](CO)CN1c1ccc(-c2ccccc2OC(F)(F)F)c(F)c1
IC50 (Escherichia coli [12]): 23 µM

MEC [6]: > 100 µM
MEC [7]: > 100 µM
MEC [8]: > 100 µM
MEC [9]: > 100 µM
MEC [10]: > 100 µM
Compound: O=C(/C=C/c1ccccc1Cl)Nc1ccc(C2=NCCN2)cc1
